The results in this text go back to US11065253B2, “Arylquinazolines” (Merck Patent GmbH, priority 2013, dated 2021).

The term pIC50 denotes the negative decadic logarithm of the IC50, by convention in mol/L.

pIC50: −log10 of the molar value. Bounds are passed on as bounds.

The test system of the first assay is phospho-serine 2056 DNA-PK in HCT116 cells. The experiment in a line: DNA-PK phosphorylation at serine 2056 (cellular), ELISA in bleomycin-treated HCT116 cells. The format is cell-based. To be noted: Homo sapiens, HCT-116, 6 h, cellular; HCT116 cells, 10 μM bleomycin, six hours; read-out: IC50 pDNA-PK. The method in brief:
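HCT116 cells were treated with 10 μM bleomycin plus test compounds for six hours at 37 °C. Phospho-Ser2056 DNA-PK measured by chemiluminescent ELISA, normalised to total DNA-PKcs signal; DMSO control as blank.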
Background: ELISA stands for enzyme-linked immunosorbent assay.
Take `OC(c1ccc(F)c(-c2ncnc3cc(N4CCOCC4)ccc23)c1)c1c(F)cncc1F` (centres unmarked) [Example 1, (3,5-Difluoropyridin-4-yl)-[4-fluoro-3-(7-morpholin-4-ylquinazolin-4-yl)phenyl]methanol]: the pIC50 was 5.30 to 6.30.
Turning to `OC(c1ccc(F)c(-c2ncnc3cc(N4CCOCC4)ccc23)c1)c1ncccc1C(F)(F)F` (centres unmarked) [Example 80, [4-Fluoro-3-(7-morpholin-4-yl-quinazolin-4-yl)-phenyl]-(3-trifluoro-methylpyridin-2-yl)-methanol], the negative logarithm of the IC50 (pIC50) is 5.30 to 6.30.

Still in this assay, the particulars now being: Homo sapiens, HCT-116, cellular DNA-PK phosphorylation at serine 2056, HCT116 cells; read-out: IC50 pDNA-PK.
As for `COc1cncnc1C(O)c1cc(-c2ncnc3cc(N4CCOCC4)ccc23)c(F)cc1F` (centres unmarked) [Example 448, [2,4-Difluoro-5-(7-morpholin-4-yl-quinazolin-4-yl)-phenyl]-(5-methoxy-pyrimidin-4-yl)-methanol], the pIC50 is 5.30 to 6.30.
For `CCn1c(C(O)c2ccc(F)c(-c3ncnc4cc(N5CCOCC5)ccc34)c2)cccc1=O` (centres unmarked) [Example 398, 1-Ethyl-6-{[4-fluoro-3-(7-morpholin-4-yl-quinazolin-4-yl)-phenyl]hydroxy-methyl}-1H-pyridin-2-one], the negative logarithm of the IC50 (pIC50) was 5.30 to 6.30.
In the case of `Cn1c(C(O)c2cc(-c3ncnc4cc(N5CCOCC5)ccc34)c(F)cc2Cl)cccc1=O` (centres unmarked) [Example 382, 6-{[2-Chloro-4-fluoro-5-(7-morpholin-4-yl-quinazolin-4-yl)-phenyl]hydroxy-methyl}-1-methyl-1H-pyridin-2-one (Ena 2)], the pIC50 is 5.30 to 6.30.
With `Cn1cnc2ncnc(C(O)c3ccc(F)c(-c4ncnc5cc(N6CCOCC6)ccc45)c3)c21` (centres unmarked) [Example 433, [4-Fluoro-3-(7-morpholin-4-yl-quinazolin-4-yl)-phenyl]-(7-methyl-7H-purin-6-yl)-methanol], the pIC50 was 5.30 to 6.30.
As for `OC(c1ccc(F)c(-c2ncnc3cc(N4CCOCC4)ccc23)c1)c1ncnc2ccsc12` (centres unmarked) [Example 438, [4-Fluoro-3-(7-morpholin-4-yl-quinazolin-4-yl)-phenyl]thieno[3,2-d}-pyrimidin-4-yl-methanol], the pIC50 is more than 6.30.
`OC(c1cc(-c2ncnc3cc(N4CCOCC4)ccc23)ccc1F)c1ncnc2ccoc12` (centres unmarked) [Example 374, [2-Fluoro-5-(7-morpholin-4-yl-quinazolin-4-yl)-phenyl]furo[3,2-d}-pyrimidin-4-yl-methanol]: the negative logarithm of the IC50 (pIC50) was 5.30 to 6.30.

Still in this assay, the particulars now being: Homo sapiens, HCT-116, phospho-serine 2056 DNA-PK, bleomycin-treated HCT116 cells; class symbols A-D; read-out: IC50 pDNA-PK.
With `COc1ccc([C@H](O)c2cc(-c3ncnc4cc(N5CCOCC5)ccc34)c(F)cc2Cl)nn1` [Example 135, (R)-[2-Chloro-4-fluoro-5-(7-morpholin-4-yl-quinazolin-4-yl)-phenyl]-(6-methoxy-pyridazin-3-yl)-methanol], the pIC50 is 4.52 to 5.00.
Same read-out and setting: as for `OC(c1ccc(F)c(-c2ncnc3cc(N4CCOCC4)sc23)c1)c1nccs1` (centres unmarked) [Example 145, [4-Fluoro-3-(6-morpholin-4-yl-thieno[3,2-d}-pyrimidin-4-yl)-phenyl]thiazol-2-yl-methanol], the figure is 5.30 to 6.30.
Still for that read-out and setting: to `OC(c1ccc(F)c(-c2ncnc3cc(N4CCOCC4)ccc23)c1)c1ccc(OC(F)F)nn1` (centres unmarked) [Example 121, (6-Difluoro-methoxy-pyridazin-3-yl)-[4-fluoro-3-(7-morpholin-4-yl-quinazolin-4-yl)-phenyl]methanol] belongs 5.30 to 6.30; to `CN(C)CCOc1ccc(C(O)c2ccc(F)c(-c3ncnc4cc(N5CCOCC5)ccc34)c2)nn1` (centres unmarked) [Example 133, [6-(2-Dimethyl-amino-ethoxy)-pyridazin-3-yl]-[4-fluoro-3-(7-morpholin-4-yl-quinazolin-4-yl)-phenyl]methanol], 5.00 to 5.30.
In the case of `Cc1nc(C(O)c2cc(-c3ncnc4cc(N5CCOCC5)ccc34)cnc2F)sc1C` (centres unmarked) [Example 205, (4,5-Dimethyl-thiazol-2-yl)-[2-fluoro-5-(7-morpholin-4-yl-quinazolin-4-yl)-pyridin-3-yl]-methanol], the pIC50 is 4.52 to 5.00.

Still in this assay, the particulars now being: Homo sapiens, HCT-116, phospho-serine 2056 DNA-PK, bleomycin-treated HCT116 cells; read-out: IC50 pDNA-PK.
Consider `COc1ccc(C(C(N)=O)c2cc(-c3ncnc4cc(N5CCOCC5)ccc34)ccc2Cl)nn1` (centres unmarked) [Example 310, 2-[2-Chloro-5-(7-morpholin-4-yl-quinazolin-4-yl)-phenyl]-2-(6-methoxy-pyridazin-3-yl)acetamide], for which the pIC50 was 4.52 to 5.00.
The same measure, in the same setting: to `Cc1nccnc1C(C(N)=O)c1cc(-c2ncnc3cc(N4CCOCC4)ccc23)c(F)cc1Cl` (centres unmarked) [Example 324, 2-[2-Chloro-4-fluoro-5-(7-morpholin-4-yl-quinazolin-4-yl)-phenyl]-2-(3-methyl-pyrazin-2-yl)-acetamide] belongs 5.30 to 6.30; to `COc1nccnc1C(C(N)=O)c1cc(-c2ncnc3cc(N4CCOCC4)ccc23)ccc1Cl` (centres unmarked) [Example 304, 2-[2-Chloro-5-(7-morpholin-4-yl-quinazolin-4-yl)-phenyl]-2-(3-methoxy-pyrazin-2-yl)acetamide], 5.00 to 5.30; to `Cc1nccnc1C(C(N)=O)c1ccc(F)c(-c2ncnc3cc(N4CCOCC4)ccc23)c1` (centres unmarked) [Example 327, 2-[4-Fluoro-3-(7-morpholin-4-yl-quinazolin-4-yl)-phenyl]-2-(3-methyl-pyrazin-2-yl)-acetamide], 4.52 to 5.00.
On to `NC(=O)C(c1ccc(F)c(-c2ncnc3cc(N4CCOCC4)ccc23)c1)c1c(F)cncc1F` (centres unmarked) [Example 321, 2-(3,5-Difluoro-pyridin-4-yl)-2-[4-fluoro-3-(7-morpholin-4-yl-quinazolin-4-yl)-phenyl]acetamide], for which the pIC50 was 5.30 to 6.30.

The assay is the same for the next values; noted with them: cellular DNA-PK phosphorylation at serine 2056, HCT116 cells; read-out: IC50 pDNA-PK.
For the compound `COc1nccnc1[C@@H](O)c1cc(-c2ncnc3cc(N4CCOCC4)ccc23)ccc1Cl` [Example 411, (S)-[2-Chloro-5-(7-morpholin-4-yl-quinazolin-4-yl)-phenyl]-(3-methoxy-pyrazin-2-yl)-methanol (Ena 1)], the pIC50 is 5.30 to 6.30.
Same read-out and setting: as for `Cc1cncnc1C(C(N)=O)c1cc(-c2ncnc3cc(N4CCOCC4)ccc23)ccc1Cl` (centres unmarked) [Example 407, 2-[2-Chloro-5-(7-morpholin-4-yl-quinazolin-4-yl)-phenyl]-2-(5-methyl-pyrimidin-4-yl)-acetamide], the figure is 5.30 to 6.30.
Regarding `OC(c1cc(-c2ncnc3cc(N4CCOCC4)ccc23)c(F)cc1F)c1nccnc1OC(F)F` (centres unmarked) [Example 451, (3-Difluoromethoxy-pyrazin-2-yl)-[2,4-difluoro-5-(7-morpholin-4-yl-quinazolin-4-yl)-phenyl]methanol], the pIC50 was 5.30 to 6.30.
On to `OC(c1cc(-c2ncnc3cc(N4CCOCC4)ccc23)ccc1Cl)c1ncnc2ccoc12` (centres unmarked) [Example 415, [2-Chloro-5-(7-morpholin-4-yl-quinazolin-4-yl)-phenyl]furo[3,2-d}-pyrimidin-4-yl-methanol (Ena 1)], for which the pIC50 was more than 6.30.
For the compound `Cn1c(C(O)c2ccc(F)c(-c3ncnc4cc(N5CCOCC5)ccc34)c2)cccc1=O` (centres unmarked) [Example 376, 6-{[4-Fluoro-3-(7-morpholin-4-yl-quinazolin-4-yl)-phenyl]hydroxy-methyl}-1-methyl-1H-pyridin-2-one (Ena 1)], the pIC50 is more than 6.30.
Consider `Cc1nccnc1C(O)c1cc(-c2ncnc3cc(N4CCOCC4)ccc23)ccc1Cl` (centres unmarked) [Example 428, [2-Chloro-5-(7-morpholin-4-yl-quinazolin-4-yl)-phenyl]-(3-methyl-pyrazin-2-yl)-methanol], for which the pIC50 is more than 6.30.
On the same count and under the same terms, as for `Cc1cncnc1C(O)c1cc(-c2ncnc3cc(N4CCOCC4)ccc23)ccc1Cl` (centres unmarked) [Example 419, [2-Chloro-5-(7-morpholin-4-yl-quinazolin-4-yl)-phenyl]-(5-methyl-pyrimidin-4-yl)-methanol], the figure is 5.30 to 6.30; as for `OC(c1cc(-c2ncnc3cc(N4CCOCC4)ccc23)c(F)cc1Cl)c1ncnc2ccoc12` (centres unmarked) [Example 452, [2-Chloro-4-fluoro-5-(7-morpholin-4-yl-quinazolin-4-yl)-phenyl]furo[3,2-d}-pyrimidin-4-yl-methanol], more than 6.30.

Still in this assay, the particulars now being: cellular; HCT116 cells, 10 μM bleomycin, six hours; read-out: IC50 pDNA-PK.
Consider `COc1nccnc1C(O)c1ccc(F)c(-c2ncnc3cc(N4CCOCC4)ccc23)c1` (centres unmarked) [Example 38, [4-Fluoro-3-(7-morpholin-4-yl-quinazolin-4-yl)phenyl]-(3-methoxy-pyrazin-2-yl)methanol], for which the pIC50 is more than 6.30.
For the compound `OC(c1ccc2nccn2n1)c1cc(-c2ncnc3cc(N4CCOCC4)ccc23)c(F)cc1F` (centres unmarked) [Example 51, [2,4-Difluoro-5-(7-morpholin-4-yl-quinazolin-4-yl)phenyl]-imidazo[1,2-b]pyridazin-6-ylmethanol], the pIC50 is more than 6.30.
As to `COc1nnc(Cl)cc1C(O)c1ccc(F)c(-c2ncnc3cc(N4CCOCC4)ccc23)c1` (centres unmarked) [Example 9], the pIC50 is more than 6.30.

The assay is the same for the next values; noted with them: phospho-serine 2056 DNA-PK, bleomycin-treated HCT116 cells; class symbols A-D; read-out: IC50 pDNA-PK.
In the case of `OC(c1cc(F)c(F)c(-c2ncnc3cc(N4CCOCC4)ccc23)c1)c1nccs1` (centres unmarked) [Example 179, [3,4-Difluoro-5-(7-morpholin-4-yl-quinazolin-4-yl)-phenyl]thiazol-2-yl-methanol], the pIC50 was 5.30 to 6.30.

The assay is the same for the next values; noted with them: phospho-serine 2056 DNA-PK, bleomycin-treated HCT116 cells; read-out: IC50 pDNA-PK.
Regarding `COc1ccc(C(C(N)=O)c2cc(-c3ncnc4cc(N5CCOCC5)ccc34)c(F)cc2Cl)nn1` (centres unmarked) [Example 325, 2-[2-Chloro-4-fluoro-5-(7-morpholin-4-yl-quinazolin-4-yl)-phenyl]-2-(6-methoxypyridazin-3-yl)acetamide], the negative-log IC50 (pIC50) is 4.52 to 5.00.
In the case of `[2H]C1([2H])OC([2H])([2H])C([2H])([2H])N(c2ccc3c(-c4cc([C@H](O)c5nccnc5C)ccc4F)ncnc3c2)C1([2H])[2H]` [Example 243, (S)-[4-Fluoro-3-[7-(2,2,3,3,5,5,6,6-octadeuterio-morpholin-4-yl)quinazolin-4-yl]phenyl]-(3-methylpyrazin-2-yl)methanol], the pIC50 is 5.30 to 6.30.
